The source of these data is US20100298430A1, “PROPHYLACTIC ANTISTRESS AGENT” (KAO CORPORATION, priority 2005, published 2010).

The test system of assay [1] is fatigue rats. Put plainly: Weighted swimming test in water immersion load fatigue rats (stress fatigue), intraperitoneal administration. It counts as in vivo, SD rats. The settings on record: CQA 300 mg/kg intraperitoneally once a day for 5 days; swim on the 6th day with weight 8% of body weight, water of 23° C.; vs normal saline control. How it is done: SD rats (male, 7-week-old, n=4 to 12) were bred for 5 days in a cage wherein the water depth had been set at 1.5 cm (23±1° C.) (1 rat/1 cage), so as to produce fatigue rats. It is to be noted that the water in such a cage was exchanged with fresh one every day. From the first day, a test sample or a normal saline solution used as a control was intraperitoneally administered to the rats once a day. At the same time, rats, which had been bred on a common bedding, were defined as normal rats, and from the first day, a normal saline solution was intraperitoneally administered to them once a day. After completion of the breeding for 5 days, a weight that was 8% of the body weight was attached to the tail portion of each rat on the 6th day, and the rat was then allowed to swim in water of 23° C. The time required until the nose was submerged in water for 10 or more seconds was measured, and the thus measured time was evaluated as a fatigue level caused by stress. For the test group, chlorogenic acid (CQA 300 mg/kg) was used. For the control group, a normal saline solution was used.

Assay [2] concerns fatigue rats. Put plainly: Weighted swimming test in water immersion central fatigue model rats, administration in drinking water. Format: in vivo, SD rats. The settings on record: 0.25% (W/V) in drinking water (370 mg/kg/day), oral; 3 days water immersion; swim on the 4th day with weight 8% of body weight; vs distilled water control. How it is done: A test sample or distilled water used as a control was administered in the form of drinking water to SD rats (male, 6-week-old, n=3 to 6). Thereafter, the rats were bred for 3 days in a cage wherein the water depth had been set at 1.5 cm (23±1° C.) (1 rat/1 cage), so as to produce fatigue rats. It is to be noted that the water in such a cage was exchanged with fresh one every day. At the same time, rats, which had been bred on a common bedding, were defined as normal rats. After completion of the breeding for 3 days, a weight that was 8% of the body weight was attached to the tail portion of each rat on the 4th day, and the rat was then allowed to swim in water of 23° C. The time required until the nose was submerged in water for 10 or more seconds was measured, and the thus measured time was evaluated as a fatigue level caused by central fatigue (chronic fatigue). This model has been known as a central fatigue model (Non-Patent Document 1 and Neurosci. Lett. 352 (2003), 159-162). For the test group, 0.25% (W/V) chlorogenic acid (370 mg/kg/day) was used. For the control group, distilled water was used.

For the compound `O=C(/C=C/c1ccc(O)c(O)c1)O[C@@H]1C[C@](O)(C(=O)O)C[C@@H](O)[C@H]1O` [chlorogenic acid], the “fatigue level caused by stress (swimming time until the nose was submerged in water for 10 or more seconds)” value with fatigue rats [1] is recorded as “attenuated”. For the same compound, in the assay with fatigue rats [2], the “fatigue level caused by central fatigue (chronic fatigue) (swimming time until the nose was submerged in water for 10 or more seconds)” value is reported as “attenuated”.
